# Assay results as given in patent US12404251B2, “Small molecule compound” (Cerepeut, Inc., priority 2017, dated 2025).
# “Also recorded” adds a separate entry of the source.
# Assays:
# [1] = test system: NCI-H1299; experiment: CellTiter-Glo cell viability, NCI-H1299 NSCLC model; format: cell-based, human; settings: NCI-H1299, 72 hour incubation
# Description: (§1) Cell seeding (Day “−1”): The cell density of eight adherent cell lines was adjusted according to supplier-recommended information. 50 μL cells were seeded in four 384-well-plates, and 50 μL DPBS was added to the edge wells.
# (§2) Compound preparation (Day 0): All test compounds were dissolved in DMSO and stored in a nitrogen cabinet. The stock concentration of the test compounds was 120 mM. The stock concentration of the reference compounds was 10 mM. The reference compound paclitaxel was diluted with DMSO to provide a 400 μM stock solution.
# (§3) Cell treatment with test compounds (Day 0): Test compounds (125 nL in DMSO) were added to the wells using an ECHO liquid handling system (Labcyte Inc.) and serially diluted by three fold, providing 10 doses in each series with a maximum concentration of 300 μM. […]
# (§4) Assay (Day 3): After the cells were treated with the compounds for 72 hours, the plates were equilibrated at room temperature for approximately 30 minutes. 25 μL of CellTiter Glo reagent was added to each well, and the luminescence in each well was measured after 10 min using an ENVISION fluorescence plate reader (PerkinElmer). […]
# (§5) To evaluate the anti-tumor activity of CPT-2008, the growth inhibitory effect of the compound was measured in various human cancer cell lines after 72 hour incubation. […] The data recorded for the paclitaxel reference compound were consistent with the historical published data.
# [2] = in vitro; format: in vitro ADME; settings: human
# [3] = test system: NCI-H82; experiment: CellTiter-Glo cell viability, NCI-H82 SCLC model; format: cell-based, human; settings: NCI-H82, 72 hour incubation
# Description: as §1, §2, §3, §4, §5
# [4] = test system: U118MG; experiment: CellTiter-Glo cell viability, U118MG glioblastoma model; format: cell-based, human; settings: 72 hour incubation
# Description: as §1, §2, §3, §4, §5
# [5] = test system: A549; experiment: CellTiter-Glo cell viability, A549 NSCLC model; format: cell-based, human; settings: A549, 72 hour incubation
# Description: as §1, §2, §3, §4, §5
# [6] = test system: human GBM cells; experiment: Mitochondrial calcium, Rhod-2AM staining; format: cell-based; settings: vs DMSO control (FIG. 14)
# Description: GBM cells treated with DMSO vehicle (control) or with CPT-2008 in DMSO were stained with Rhod-2AM to probe mitochondrial calcium (mito-Ca^2+) level. CPT-2008 elevated mito-Ca^2+.
# (§6) CPT-2008 affects mitochondrial function. […] Given the important role of mitochondria in maintaining cancer cells, especially cancer stem cells, the effects of CPT-2008 on a number of mitochondrial parameters in human glioblastoma (GBM) cells were texted next. First, the effects of CPT-2008 on mitochondrial ROS level were studied. For this purpose, the mito-SOX dye was used. Mito-SOX can specifically monitor mitochondrial ROS levels. […] The effect of CPT-2008 on mitochondrial membrane potential, a key factor that determines mitochondrial health and activity, was also measured using the TRM dye. […] The effect of CPT-2008 on mitochondrial calcium homeostasis was also measured using the Rhod-2AM dye, which specifically monitors mitochondrial calcium levels. […] The effect of CPT-2008 on mitochondrial morphology was also measured using immunostaining of the mitochondrial outer membrane marker Tom20. […] Finally, the effect of CPT-2008 on the self-renewal of GBM cells was tested.
# [7] = test system: Jurkat; experiment: CellTiter-Glo cell viability, Jurkat T cell leukemia model; format: cell-based, human; settings: 72 hour incubation
# Description: as §1, §2, §3, §4, §5
# [8] = test system: Sprague-Dawley rats; experiment: Rat middle cerebral artery occlusion (MCAO) stroke model; format: in vivo; settings: rat MCAO 1.5 h, 24 h reperfusion; 25-100 mg/kg intraperitoneally 0 h and 8 h after reperfusion; TTC staining; compared with edaravone 6 mg/kg
# Description: Edaravone (3-methyl-1-phenyl-2-pyrazolin-5-one) is a reactive oxygen species (ROS) scavenger approved for the treatment of stroke and ALS in Japan, and for the treatment of ALS in the United States. The efficacy of CPT-2008 for preventing brain damage in a rat middle cerebral artery occlusion (MCOA) model was compared with the efficacy of edaravone. Sprague-Dawley rats were dosed with vehicle, edaravone (6 mg/kg), or CPT-2008 (25-100 mg/kg), and the level of infarcted brain tissue was assessed. In this study rats underwent middle cerebral artery occlusion (MCAO) for 1.5 h followed by 24 h reperfusion. CPT-2008 was given intraperitoneally 0 h and 8 h after reperfusion, and behavior deficits and brain insult were assessed by Longa score scale and TTC staining, respectively. […] It is believed that the improved benefit of CPT-2008 is due, in part, to prevention ROS formation in brain tissue mitochondria.
# [9] = test system: paclitaxel-treated rats; experiment: Paclitaxel-induced neuropathic pain model, paw withdrawal test; format: in vivo, rat; settings: 100 mg/kg intraperitoneal; 1.5 h, 3 h, 4.5 h post dosing; vs vehicle (FIG. 20)
# Description: An estimated 30-40% of cancer patients undergoing chemotherapy experience peripheral neuropathic pain, a neuroinflammation-induced debilitating side effect that causes patients to stop their treatment early or take lower doses. The effects of CPT-2008 in reducing neuropathic pain were studied in paclitaxel-treated rats. After paclitaxel treatment for 8 days, Sprague-Dawley rats were housed for additional days. On day 22, 16 rats were randomly separated into two groups. One group was dosed with vehicle, and the other group was dosed via intraperitoneal injection with CPT-2008 at 100 mg/kg. Pain (mechanical allodynia) test subjects was assessed using a paw withdrawal test (PWT) as described by Xie (“Activation of notch signaling mediates the induction and maintenance of mechanical allodynia in a rat model of neuropathic pain.” Molecular Medicine Reports 12: 639-644, 2015). Rats were measured for paw withdrawal threshold post dosing of test compound at 1.5 h, 3 h, and 4.5 h.
# [10] = test system: NCI-H446; experiment: CellTiter-Glo cell viability, NCI-H446 SCLC model; format: cell-based, human; settings: NCI-H446, 72 hour incubation
# Description: as §1, §2, §3, §4, §5
# [11] = Pharmacokinetics in Sprague-Dawley rats (plasma and brain); format: in vivo, rat; settings: for bioavailability: Sprague-Dawley, rat, in vivo
# Description: Sprague-Dawley rats were administered CPT-2008 by IV or PO. Blood samples (about 1 mL) were collected via cardiac puncture after euthanasia by carbon dioxide inhalation at 5 min, 15 min, 30 min, 1 h, 2 h, 4 h, 8 h, 24 h of post dose. Blood samples were placed into tubes containing heparin sodium and centrifuged at 3500 rpm for 10 minutes at 4° C. to separate plasma from the samples. Following centrifugation, the resulting plasma was transferred to labeled tubes and stored frozen at −80° C. pending bioanalysis. The brain each studied animal at each time point was collected after the animal was euthanized by carbon dioxide inhalation. The whole tissue was harvested, excised and then placed into one tube per tissue per animal. The tissue samples were placed on dry ice and then stored at −80° C. until bioanalysis.
# [12] = in vitro; format: in vitro ADME; settings: human; remark: listed apart in the source
# [13] = test system: HCT116; experiment: CellTiter-Glo cell viability, HCT116 colorectal cancer model; format: cell-based, human; settings: HCT116, 72 hour incubation
# Description: as §1, §2, §3, §4, §5
# [14] = test system: human GBM cells; experiment: Mitochondrial ROS, Mito-SOX staining; format: cell-based; settings: vs DMSO control (FIG. 15)
# Description: GBM cells treated with DMSO vehicle (control) or with CPT-2008 in DMSO were stained with Mito-SOX to probe mitochondrial ROS level.
# as §6
# [15] = test system: Molt-4; experiment: CellTiter-Glo cell viability, Molt-4 T-ALL model; format: cell-based, human; settings: Molt-4, 72 hour incubation
# Description: as §1, §2, §3, §4, §5
# [16] = test system: A2780; experiment: CellTiter-Glo cell viability, A2780 ovarian cancer model; format: cell-based, human; settings: A2780, 72 hour incubation
# Description: as §1, §2, §3, §4, §5
# [17] = test system: GBM cells; experiment: Mitochondrial morphology, TOM-20 immunostaining; format: cell-based, human; settings: vs DMSO control (FIG. 16)
# Description: GBM cells treated with DMSO (control) or CPT-2008 in DMSO were immunostained for TOM-20 to reveal mitochondrial morphology.
# as §6
# [18] = test system: human GBM cells; experiment: Mitochondrial membrane potential, TMRM staining; format: cell-based; settings: vs DMSO vehicle (FIG. 17)
# Description: GBM cells treated with DMSO vehicle or with CPT-2008 in DMSO were stained with TMRM to probe mitochondrial membrane potential.
# as §6
# [19] = test system: MCF7; experiment: CellTiter-Glo cell viability, MCF7 breast cancer model; format: cell-based, human; settings: MCF7, 72 hour incubation
# Description: as §1, §2, §3, §4, §5
# [20] = test system: T98G; experiment: CellTiter-Glo cell viability, T98G glioblastoma model; format: cell-based, human; settings: 72 hour incubation
# Description: as §1, §2, §3, §4, §5
# [21] = test system: human GBM cells; experiment: Self-renewal of GBM cells (neurosphere formation); format: cell-based; settings: 20 uM CPT-2008 vs DMSO vehicle (FIG. 18)
# Description: Control: cells treated with DMSO vehicle; CPT-2008: cells treated with 20 uM CPT-2008.
# as §6
compound,measurement,setting,value
"COc1cc(-n2c(S)nc3cc(OC)c(Cl)cc3c2=O)c(Cl)cc1Cl [CPT-2008, 6-chloro-3-(2,4-dichloro-5-methoxyphenyl)-2-mercapto-7-methoxyquinazolin-4(3H)-one]",IC50,[1],low μM range
same,stability in hepatocytes,[2],excellent stability
same,half-life,"[2]; hepatocytes, half-life",~94.3 h
same,IC50,[3],nM range
same,IC50,[4],low μM range
same,IC50,[5],low μM range
same,mitochondrial calcium (mito-Ca2+) level,[6],caused an increase; also recorded: elevated
same,IC50,[7],nM range
same,level of infarcted (dead) brain tissue,[8],reduced levels of dead brain tissue
same,paw withdrawal threshold (mechanical allodynia),[9],increased threshold values
same,IC50,[10],nM range
same,crossing of the blood brain barrier,"[11]; Sprague-Dawley rats, IV or PO (FIG. 21A, 21B)",efficiently cross the blood brain barrier
same,bioavailability,[11]; brain bioavailability,39%
same,bioavailability,[11]; plasma bioavailability,94.5%
same,stability in microsomes,[12],excellent stability
same,half-life,[12]; microsomes,~3.6 h
same,IC50,[13],low μM range
same,mitochondrial ROS level,[14],significant increase; also recorded: significantly elevated
same,IC50,[15],low μM range
same,IC50,[16],nM range
same,mitochondrial morphology,[17],dramatic fragmentation of mitochondria; also recorded: induced mitochondrial size reduction
same,mitochondrial membrane potential,[18],dramatic reduction; also recorded: dramatically reduced
same,IC50,[19],low μM range
same,IC50,[20],low μM range
same,self-renewal of GBM cells (ability to form neurospheres),[21],significantly inhibited; also recorded: lost such ability
